“And” between values parts separate entries of the source, which are not always exact repeats. Identical values can stand only once.
What was measured:
Type in all cases: cell-based
[1] = tested on: myeloma ARH-77 cells; experiment: MTT assay on myeloma ARH-77 cells, chemotherapeutic drug alone or combined with TN-GL-01 or a comparative drug; conditions: for IC50: Homo sapiens, ARH-77 cells, chemotherapeutic agent alone (control)
Method: (§1) Ovarian cancer cell ES-2 and myeloma cell line ARH-77 were used in the present disclosure. Cells was cultured and maintained in Dulbecco's modified Eagle media (DMEM) supplemented with 10 % fetal bovine serum (FBS), 100 IU/ml penicillin, […] streptomycin, 2 mM glutamine, nonessential amino acids and sodium pyruvate in 5% CO2 at 37 °C. Cells were grown and maintained in Petri dishes (each was 10 cm in diameter) until they reached 80% confluence, and then were subject to cell passages. Briefly, cells were first washed with phosphate buffer solution (PBS, 3 ml) once, then treated with 0.05% Trypsin/0.025% EDTA solution (1 mL) for 5 min so that the attached cells become suspended. The suspended cells were harvested and 2 mL fresh culture media were added therein to neutralize any remaining activity of trypsin. Cell density was adjusted by adding appropriate amounts of culture medium to the cell suspension, which was then used to seed the culture plates. The plates were then returned to the incubator, and cultured in accordance with the steps described above.
Cells were seeded in 96-well plates with a density of 3,000 cells/well and cultured in accordance with the procedures described above. On the day when cell activity analysis was to be conducted, cells were first treated with various concentrations of the triterpenoids of the present disclosure, imatinib or gefitinib for at least 48 hrs, before subjecting them to MTT assay.
50 µL of the MTT stock solution (5 mg MTT dissolved in 1 ml of sterile PBS) was added to each well, and 50 µL of the MTT stock solution was added to 500 µL of medium alone and used as a negative control. Each sample was incubated at 37°C for 4 hours. Aliquots (450 µl) from each sample were taken to a new well of 48-well culture plate, adding 100µL DMSO, mixing thoroughly using the pipette and reacted at 37°C for 20 min and absorbance was measured at 570 nm.
In this example, the effect of TN-GL-01 composition of example 1.1 on the cell killing effect of a chemotherapeutic drug (i.e., etoposide, doxorubicin, cisplatin, and paclitaxel) on myeloma ARH-77 cells was investigated, in which cyclophosphamide served as a comparative drug. Results are summarized in Tables 1 to 3, and Figures 3 and 4.
To determine the effects of combined use of TN-GL-01 and any other three drugs including paclitaxel, doxorubicin, and cisplatin, the statistical differences between expected value and oberved value of the survival rate were calculated. If no significantance existed between the expected and observed values, the effect is termed"additivity (p > 0.05)". […] The expected value was determined by multifying the survival rate of each drug in specific dose. The obtained value and value of each survival rate were measured by MMT assay (Fig. 3 and Fig. 4).

[2] = tested on: galectin-1; experiment: Western blot analysis of galectin-1 expression in ES-2 cells; conditions: Figure 2
Method: Samples were respectively subjected to SDS-PAGE, transferred to PVDF membranes. These blots were blocked with 5% nonfat milk powder in TBS-0.1% Tween-20 for 30 minutes, followed by incubation with primary antibodies at 4°C overnight and then horseradish peroxidaseconjugated secondary antibodies (Amersham Biosciences, Piscataway). Imaging of bands was performed using Pierce ECL Western Blotting Substrate (Thermo Fisher Scientific) and ImageQuant LAS-4000 (GE Healthcare).
In this example, the effects of TN-GL-01 composition on the expression of galectin-1 in ERK (extracellular-signal-regulated kinase) pathway was invesigated via western blot analysis. […] Thus, it was concluded that the present TN-GL-01 composition exerted its function through suppression of galectin -1.

[3] = tested on: ES-2 cells; experiment: MTT assay (cell activity analysis) on ovarian cancer ES-2 cells; conditions: treatment at least 48 hrs
Method: as §1, with “The suspended cells were harvested and 2 mL fresh culture media were added therein to neutralize any remaining activity of trypsin. Cell density was adjusted by adding appropriate amounts of culture medium to the cell suspension, which was then used to seed the culture plates. The plates were then returned to the incubator, and cultured in accordance with the steps described above.” left out
50 µL of the MTT stock solution (5 mg MTT dissolved in 1 ml of sterile PBS) was added to each well, and 50 µL of the MTT stock solution was added to 500 µL of medium alone and used as a negative control. […] Aliquots (450 µl) from each sample were taken to a new well of 48-well culture plate, adding 100µL DMSO, mixing thoroughly using the pipette and reacted at 37°C for 20 min and absorbance was measured at 570 nm.
The effects of the TN-GL-01 composition of example 1.1 on ovarian cancer cells (i.e., ES-2 cells) were evaluated by MTT assay in accordance with procedures described in the "Material and Methods" section.

[4] = Table 2, second agent alone: TN-GL-01 20 µg/mL, Doxorubicin 100 nM, Cisplatin 3 µM
[5] = Table 3, second agent alone: TN-GL-01 20 µg/mL, Paclitaxel 40 µM, Cisplatin 3 µM

N.N.[Cl][Pt][Cl] [Cisplatin]
Cell Survival Rate, single drug (factor of expected value) [1, 4]: 0.65
Cell Survival Rate, single drug (factor of expected value) [1, 5]: 0.69

COc1cccc2c1C(=O)c1c(O)c3c(c(O)c1C2=O)C[C@@](O)(C(=O)CO)C[C@@H]3O[C@H]1C[C@H](N)[C@H](O)[C@H](C)O1 [Doxorubicin]
IC50 [1]: 99 nM
Cell Survival Rate, single drug (factor of expected value) [1, 4]: 0.58

COc1cc([C@@H]2c3cc4c(cc3[C@@H](O[C@@H]3O[C@@H]5CO[C@@H](C)O[C@H]5[C@H](O)[C@H]3O)[C@H]3COC(=O)[C@H]23)OCO4)cc(OC)c1O [Etoposide]
IC50 [1]: 415 nM

C/C(=C/CC[C@@H](C)[C@H]1CC[C@@]2(C)C3=CC[C@H]4C(C)(C)C(=O)CC[C@]4(C)C3=CC[C@]12C)C(=O)O [GAS, ganoderic acid S]
expression of galectin-1 [2]: effective in suppressing
50% inhibition of ES-2 cells (IC50) [3]: 58.3 µg/mL

CC(=O)O[C@@H](C/C=C(\C)C(=O)O)[C@@H](C)[C@H]1C[C@H](OC(C)=O)[C@@]2(C)C3=CC[C@H]4C(C)(C)[C@H](OC(C)=O)CC[C@]4(C)C3=CC[C@]12C [GAT, ganoderic acid T]
expression of galectin-1 [2]: effective in suppressing
50% inhibition of ES-2 cells (IC50) [3]: 24.5 µg/mL

CC(=O)O[C@H]1C(=O)[C@@]2(C)[C@H]([C@H](OC(=O)c3ccccc3)[C@]3(O)C[C@H](OC(=O)[C@H](O)[C@@H](NC(=O)c4ccccc4)c4ccccc4)C(C)=C1C3(C)C)[C@]1(OC(C)=O)CO[C@@H]1C[C@@H]2O [Paclitaxel]
Cell Survival Rate, single drug (factor of expected value) ([1]; Table 2, Paclitaxel 62.5 nM alone): 0.68 × 0.82 = 0.56±0.03 and 0.68
Cell Survival Rate, single drug (factor of expected value) ([1]; Table 2, Paclitaxel 125 nM alone): 0.50 × 0.82 = 0.41±0.03 and 0.50
Cell Survival Rate, single drug (factor of expected value) [1, 5]: 0.65

— EP3821949B1, “PHARMACEUTICAL COMPOSITION FOR USE IN THE TREATMENT OF A CANCER ASSOCIATED WITH THE ACTIVATION OF GALECTIN-1” (Trineo Biotechnology Co. Ltd, priority 2019, dated 2021)
